The values that follow come from patent publication US8476265B2, “Compounds-801” (AstraZeneca AB, priority 2010, dated 2013).

For assay [1], the target named is T1, Adrenergic β2 (Homo sapiens, UniProt P07550).
T1 construct: Adherent H292 cells are removed from tissue culture flasks by treatment with Accutase™ cell detachment solution; endogenous in cells; host or cells: H292 cells
As to the kind of experiment: Adrenergic β2 mediated cAMP production in H292 cells, single concentration 1 μM. The class given is cell-based. Particulars: NCI-H292, 1 μM compound, cAMP as percentage of the maximum response generated by 1E-07M formoterol, read-out: β2 % effect @1 uM. The method, then: The following experimental procedure was used to measure the beta-2% effect at 1 μM for the compounds of Examples 99-175. Adrenergic p2 Mediated cAMP Production Cell Preparation
H292 cells are grown in 225 cm2 flasks incubator at 37° C., 5% CO2 in RPMI medium containing 10% (v/v) FBS (foetal bovine serum) and 2 mM L-glutamine.
Compounds are prepared by an initial first dilution into DMSO to give 1 mM stock concentration. This is followed by a 1 in 10 dilution of the stock concentration (10 μl stock compound +90 μl DMSO) to give 0.1 mM compound. A compound addition plate is prepared by making a further 1 in 25 dilution in assay buffer (HBSS solution containing 10 mM HEPES pH7.4 and 5 mM glucose) containing 4% dimethylsulfoxide. The final compound concentration in assay is 1 μM.
Adherent H292 cells are removed from tissue culture flasks by treatment with Accutase™ cell detachment solution for 15 minutes. Flasks are incubated for 15 minutes in a humidified incubator at 37° C., 5% CO2. Detached cells are re-suspended in RPMI media (containing 10% (v/v) FBS and 2 mM L-glutamine) at 0.1×10^6 cells per mL. 10000 cells in 100 μL are added to each well of a tissue-culture-treated 96-well plate and the cells incubated overnight in a humidified incubator at 37° C., 5% CO2. The culture media is removed and cells are washed twice with 100 μL assay buffer and replaced with 50 μL assay buffer (HBSS solution containing 10 mM HEPES pH7.4 and 5 mM glucose). Cells are rested at room temperature for 20 minutes after which time 25 μL of rolipram (1.2 mM made up in assay buffer) is added. Cells are incubated with rolipram for 10 minutes after which time 25 μl test compounds are added and the cells are incubated for 60 minutes at room temperature. The final rolipram concentration in the assay is 300 μM and final vehicle concentration is 1% (v/v) dimethylsulphoxide. The reaction is stopped by removing supernatants, washing once with 100 μL assay buffer and replacing with 50 μL lysis buffer. The cell monolayer is frozen at −80° C. for 30 minutes (or overnight).
AlphaScreen™ cAMP Detection
The concentration of cAMP (cyclic adenosine monophosphate) in the cell lysate is determined using AlphaScreen™ methodology. The frozen cell plate is thawed for 20 minutes on a plate shaker then 10 μL of the cell lysate is transferred to a 96-well white plate. 40 μl of mixed AlphaScreen™ detection beads (containing equal volumes of donor beads (pre-incubated with biotinylated cAMP in the dark for 30 minutes) and acceptor beads is added to each well and the plate incubated at room temperature for 3 hours in the dark. The AlphaScreen™ signal is measured using an EnVision spectrophotometer (Perkin-Elmer Inc.) with the recommended manufacturer's settings. Concentration of cAMP produced per well were calculated with reference to the cAMP standard curve determined in the same experiment and expressed as a percentage of the maximum response generated by 1E-07M formoterol.
On the technique in general: cAMP levels reflect the balance of adenylyl cyclase and phosphodiesterase activity.

Assay [2] deals with T2, human muscarinic acetylcholine M3 receptor (Homo sapiens, UniProt P20309).
T2 construct: expressed in transfected cells; host or cells: CHO-K1 (Chinese Hamster Ovary) cell membranes
T2 sequence (P20309 whole entry): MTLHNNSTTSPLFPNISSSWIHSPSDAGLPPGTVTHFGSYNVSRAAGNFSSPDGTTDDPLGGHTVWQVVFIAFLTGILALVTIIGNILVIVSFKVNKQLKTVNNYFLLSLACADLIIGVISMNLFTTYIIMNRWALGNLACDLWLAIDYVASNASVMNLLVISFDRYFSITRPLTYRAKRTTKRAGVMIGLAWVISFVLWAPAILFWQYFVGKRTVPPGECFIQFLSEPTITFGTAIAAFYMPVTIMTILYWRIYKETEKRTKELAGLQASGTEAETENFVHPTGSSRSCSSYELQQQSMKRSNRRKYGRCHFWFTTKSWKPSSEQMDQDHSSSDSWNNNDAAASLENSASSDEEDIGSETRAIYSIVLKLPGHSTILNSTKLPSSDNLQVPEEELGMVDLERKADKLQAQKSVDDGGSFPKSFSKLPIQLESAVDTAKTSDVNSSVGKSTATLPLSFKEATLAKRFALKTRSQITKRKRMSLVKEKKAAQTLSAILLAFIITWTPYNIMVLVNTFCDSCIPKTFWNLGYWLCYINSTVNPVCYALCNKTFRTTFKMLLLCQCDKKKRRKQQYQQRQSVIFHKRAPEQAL
Put plainly: Muscarinic 3 receptor binding assay ([3H]NMS competition, SPA), single concentration 1 μM. The conditions noted are these: 1 μM compound; % inhibition specific [3H]-NMS binding. As to the method: The following experimental procedure was used to determine the M3% inhibition at 1 μM of the compounds of Examples 99-175
Muscarinic 3 Receptor Binding Assay
The activity (% inhibition specific binding) of compounds on the M3 receptor is determined by competition binding of [^3H]N-methyl scopolamine (NMS) to CHO-K1 (Chinese Hamster Ovary) cell membranes expressing the human muscarinic acetylcholine M3 receptor (M3-ACh) in a scintillation proximity assay (SPA) format. SPA beads are precoated with membranes and then incubated at 2 mg of beads per well with 1 μM compound of the invention, [^3H]NMS at 0.1 nM, quarter Kd (experimentally determined dissociation constant) and assay buffer (20 mM HEPES pH 7.4 containing 5 mM MgCl2 and 0.1% (w/v) bovine serum albumin). The assay is conducted in a final volume of 200 μL, in the presence of 1% (v/v) dimethyl sulphoxide (DMSO). Total binding of [^3H]NMS is determined in the absence of competing compound and non-specific binding of [^3H]NMS is determined in the presence of 1 μM atropine. The plates are incubated for 16 hours at room temperature and then read on Wallac Microbeta™ using a normalised ^3H protocol. The compound activity at 1 μM, defined as % inhibition specific [^3H]-NMS binding, is determined.

T1 sequence (P07550 whole entry): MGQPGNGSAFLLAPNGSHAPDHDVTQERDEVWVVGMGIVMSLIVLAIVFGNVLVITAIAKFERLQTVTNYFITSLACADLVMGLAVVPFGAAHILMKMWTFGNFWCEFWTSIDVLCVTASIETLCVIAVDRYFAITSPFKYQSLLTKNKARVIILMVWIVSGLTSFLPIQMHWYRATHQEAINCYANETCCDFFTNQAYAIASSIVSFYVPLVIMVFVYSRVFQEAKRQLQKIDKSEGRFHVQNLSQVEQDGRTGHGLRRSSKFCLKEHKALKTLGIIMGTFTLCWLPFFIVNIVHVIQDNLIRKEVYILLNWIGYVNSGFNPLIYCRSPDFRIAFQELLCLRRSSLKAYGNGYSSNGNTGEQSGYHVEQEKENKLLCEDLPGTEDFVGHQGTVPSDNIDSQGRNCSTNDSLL

Take `O=C1COc2c(CCNCCN(C(=O)CCOCCc3cccc(CN4CCC5(CC4)CN(C(=O)COCc4nc6ccccc6s4)CCO5)c3)C3CCCCC3)ccc(O)c2N1` [Example 126, 3-(3-((4-(2-(Benzo[d]thiazol-2-ylmethoxy)acetyl)-1-oxa-4,9-diazaspiro[5.5]undecan-9-yl)methyl)phenethoxy)-N-cyclohexyl-N-(2-(2-(5-hydroxy-3-oxo-3,4-dihydro-2H-benzo[b][1,4]oxazin-8-yl)ethylamino)ethyl)propanamide]: the percent of formoterol maximum response at 1 µM in assay [1] is 103%. Further, the inhibition (commonly the drop in the measured response relative to a control, in per cent) at 1 µM in assay [2] turned out to be 101%.

For `Cc1ccccc1OCC(=O)N1CCOC2(CCN(Cc3cccc(CCOCCC(=O)N(CCNCCc4ccc(O)c5c4OCC(=O)N5)C4CCCCC4)c3)CC2)C1` [Example 127, N-Cyclohexyl-N-(2-(2-(5-hydroxy-3-oxo-3,4-dihydro-2H-benzo[b][1,4]oxazin-8-yl)ethylamino)ethyl)-3-(3-((4-(2-(o-tolyloxy)acetyl)-1-oxa-4,9-diazaspiro[5.5]undecan-9-yl)methyl)phenethoxy)propanamide], the percent of formoterol maximum response at 1 µM in assay [1] amounted to 110%. Besides, the inhibition at 1 µM in assay [2] was 97%.

`O=C1COc2c(CCNCCN(C(=O)CCOCCc3cccc(CN4CCC5(CC4)CN(C(=O)[C@@H](O)C4CCCCC4)CCO5)c3)C3CCCCC3)ccc(O)c2N1` [Example 129, (S)-N-Cyclohexyl-3-(3-((4-(2-cyclohexyl-2-hydroxyacetyl)-1-oxa-4,9-diazaspiro[5.5]undecan-9-yl)methyl)phenethoxy)-N-(2-(2-(5-hydroxy-3-oxo-3,4-dihydro-2H-benzo[b][1,4]oxazin-8-yl)ethylamino)ethyl)propanamide]: the percent of formoterol maximum response at 1 µM in assay [1] came out at 110%. Also, in assay [2], the inhibition at 1 µM was determined as 99%.

With `O=C1COc2c(CCNCCN(C(=O)CCOCCc3cccc(CN4CCC5(CC4)CN(C(=O)[C@H](O)c4cccc(Cl)c4)CCO5)c3)C3CCCCC3)ccc(O)c2N1` [Example 130, (R)-3-(3-((4-(2-(3-Chlorophenyl)-2-hydroxyacetyl)-1-oxa-4,9-diazaspiro[5.5]undecan-9-yl)methyl)phenethoxy)-N-cyclohexyl-N-(2-(2-(5-hydroxy-3-oxo-3,4-dihydro-2H-benzo[b][1,4]oxazin-8-yl)ethylamino)ethyl)propanamide], the percent of formoterol maximum response at 1 µM in assay [1] stood at 114%. The inhibition at 1 µM in assay [2] amounted to 99%.

On to `O=C1COc2c(CCNCCN(C(=O)CCOCCc3cccc(CN4CCC5(CC4)CN(C(=O)CC4C[C@@H]6CC[C@H]4C6)CCO5)c3)C3CCCCC3)ccc(O)c2N1` (stereo partly drawn) [Example 131, 3-(3-((4-(2-((1S,4R)-Bicyclo[2.2.1]heptan-2-yl)acetyl)-1-oxa-4,9-diazaspiro[5.5]undecan-9-yl)methyl)phenethoxy)-N-cyclohexyl-N-(2-(2-(5-hydroxy-3-oxo-3,4-dihydro-2H-benzo[b][1,4]oxazin-8-yl)ethylamino)ethyl)propanamide], for which the percent of formoterol maximum response at 1 µM in assay [1] is 97%. Moreover, in assay [2], the inhibition at 1 µM amounted to 99%.

In the case of `O=C1COc2c(CCNCCN(C(=O)CCOCCc3cccc(CN4CCC5(CC4)CN(C(=O)c4cc(Br)c[nH]4)CCO5)c3)C3CCCCC3)ccc(O)c2N1` [Example 132, 3-(3-((4-(4-Bromo-1H-pyrrole-2-carbonyl)-1-oxa-4,9-diazaspiro[5.5]undecan-9-yl)methyl)phenethoxy)-N-cyclohexyl-N-(2-(2-(5-hydroxy-3-oxo-3,4-dihydro-2H-benzo[b][1,4]oxazin-8-yl)ethylamino)ethyl)propanamide], the percent of formoterol maximum response at 1 µM in assay [1] is 96%. Also, in assay [2], the inhibition at 1 µM is 101%.

In the case of `O=C1COc2c(CCNCCN(C(=O)CCOCCc3cccc(CN4CCC5(CC4)CN(C(=O)c4n[nH]cc4Cl)CCO5)c3)C3CCCCC3)ccc(O)c2N1` [Example 133, 3-(3-((4-(4-Chloro-1H-pyrazole-3-carbonyl)-1-oxa-4,9-diazaspiro[5.5]undecan-9-yl)methyl)phenethoxy)-N-cyclohexyl-N-(2-(2-(5-hydroxy-3-oxo-3,4-dihydro-2H-benzo[b][1,4]oxazin-8-yl)ethylamino)ethyl)propanamide], the percent of formoterol maximum response at 1 µM in assay [1] worked out at 83%. The inhibition at 1 µM in assay [2] was determined as 101%.
